One assay deals with STAT1 (Homo sapiens (Human), UniProt P42224). Nature of the assay: IFN-induced STAT1 phosphorylation in GBM cells (western blotting). It counts as cell-based.
The subject of a further assay is MT300 GBM cells. Nature of the assay: Antiproliferative activity, CellTiter Glo assay, MT300 GBM cells. It counts as cell-based. As to conditions: 72 h, read-out: IC50 (proliferation). On the technique in general: In ATP-based viability assays light output follows the ATP content of the culture.
The test system of a further assay is LN299 GBM cells. Nature of the assay: Antiproliferative activity, CellTiter Glo assay, LN299 GBM cells. It counts as cell-based. As to conditions: 72 h, unit misprinted as 'and', read-out: IC50 (proliferation).
The next assay relates to parental GBM cells. Nature of the assay: Proliferation of parental (empty vector) GBM cells, Incucyte live cell analysis. It counts as cell-based. Particulars: parental (EV) GBM cells.
The test system of the next assay is STAT3-KO GBM cells. Nature of the assay: Proliferation of STAT3-knockout GBM cells, Incucyte live cell analysis. It counts as cell-based.
The subject of the next assay is MT330 glioma xenografts. Nature of the assay: Orthotopic MT330 glioma xenografts in mice, bioluminescent imaging. It counts as in vivo. Particulars: 20 mg/Kg in DMSO, into the peritoneum three times per week, female mice, BLI. As for the experimental part: BLI pictures were taken at Day 21.
In brief, 10^6 luciferase-expressing MT330 GBM cells were injected orthotopically into the brains of female […] mice. […] Tumor growth was monitored by BLI two times per week as we have previously described.

A further assay concerns MCF7 breast cancer cells. Nature of the assay: MTS cell viability assay in MCF7 breast cancer cells. It counts as cell-based. Particulars: 72 hours treatment, concentration not given. As for the experimental part:
MTS assay was used to determine the cell viability for all compounds tested. Computational docking scores were used to evaluate potential for STAT 3 inhibition (FIG. 9 and Table 3). MCF7 breast cancer cells were grown until 80-90% confluence. Cells were then transferred to a Costar 96-well plate with about 3000 cells per well. Cells were incubated for 24 hours. After incubation cells were treated with appropriate compounds and concentration for 72 hours. Twenty microliters of MTS solution was added to each well and incubated for 2 hours. The plate was then analyzed using […].
Background: Tetrazolium dyes change colour on reduction, which living cells bring about.

Another assay has as its target STAT3 (Homo sapiens (Human), UniProt P40763). Nature of the assay: Inhibition of IFN-induced STAT3 phosphorylation in GBM cells (western blotting). It counts as cell-based. For orientation: Immunoblotting shows a protein as a band on a membrane.

Chain of STAT1 (P42224 whole entry): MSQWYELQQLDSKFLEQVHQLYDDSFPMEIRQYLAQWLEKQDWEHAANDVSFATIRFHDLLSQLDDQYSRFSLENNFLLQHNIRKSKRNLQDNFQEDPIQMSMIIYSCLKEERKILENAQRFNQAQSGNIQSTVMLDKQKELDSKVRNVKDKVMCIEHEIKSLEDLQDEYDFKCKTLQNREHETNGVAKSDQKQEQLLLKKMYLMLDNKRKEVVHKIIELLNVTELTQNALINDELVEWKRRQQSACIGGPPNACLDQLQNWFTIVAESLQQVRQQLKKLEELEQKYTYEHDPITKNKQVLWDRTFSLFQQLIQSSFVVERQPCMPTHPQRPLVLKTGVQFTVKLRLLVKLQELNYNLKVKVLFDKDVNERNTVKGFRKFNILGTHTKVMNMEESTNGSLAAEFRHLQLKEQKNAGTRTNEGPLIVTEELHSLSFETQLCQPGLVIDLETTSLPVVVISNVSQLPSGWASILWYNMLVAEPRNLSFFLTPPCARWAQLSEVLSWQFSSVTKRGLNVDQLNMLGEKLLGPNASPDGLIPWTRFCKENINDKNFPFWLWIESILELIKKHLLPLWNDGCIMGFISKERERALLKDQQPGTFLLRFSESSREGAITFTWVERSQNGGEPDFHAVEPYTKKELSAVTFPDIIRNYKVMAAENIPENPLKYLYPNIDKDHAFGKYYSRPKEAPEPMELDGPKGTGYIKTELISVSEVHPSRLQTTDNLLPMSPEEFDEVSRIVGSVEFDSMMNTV
Chain of STAT3 (P40763 whole entry): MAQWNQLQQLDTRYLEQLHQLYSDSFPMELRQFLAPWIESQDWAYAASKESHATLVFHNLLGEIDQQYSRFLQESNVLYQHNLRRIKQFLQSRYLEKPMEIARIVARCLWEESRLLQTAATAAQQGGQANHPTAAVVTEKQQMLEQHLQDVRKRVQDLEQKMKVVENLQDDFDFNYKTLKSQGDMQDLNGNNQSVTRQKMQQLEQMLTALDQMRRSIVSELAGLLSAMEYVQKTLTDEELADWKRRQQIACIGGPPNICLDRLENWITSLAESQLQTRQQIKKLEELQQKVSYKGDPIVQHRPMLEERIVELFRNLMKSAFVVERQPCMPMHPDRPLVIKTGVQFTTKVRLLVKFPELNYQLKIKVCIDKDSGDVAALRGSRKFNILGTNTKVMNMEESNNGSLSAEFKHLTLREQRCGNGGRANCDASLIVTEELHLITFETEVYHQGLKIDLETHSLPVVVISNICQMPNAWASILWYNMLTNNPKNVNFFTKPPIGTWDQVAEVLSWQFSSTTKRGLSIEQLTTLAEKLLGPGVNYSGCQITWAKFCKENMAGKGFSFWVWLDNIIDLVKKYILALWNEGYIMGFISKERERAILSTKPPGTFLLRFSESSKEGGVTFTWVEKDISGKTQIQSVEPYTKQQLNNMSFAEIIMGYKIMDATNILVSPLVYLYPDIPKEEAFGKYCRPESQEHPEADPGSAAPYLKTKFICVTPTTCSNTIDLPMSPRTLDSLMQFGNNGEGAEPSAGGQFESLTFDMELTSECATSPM

In the case of `N#Cc1cc(Cc2ccccc2)sc1NC(=O)COc1ccccc1` [Compound 1, N-(5-benzyl-3-cyanothiophen-2-yl)-2-phenoxyacetamide], the “Effect on STAT1 phosphorylation” value on STAT1 is listed as “no effect”. In addition, the IC50 in the assay with MT300 GBM cells is 0.085 µM; in the assay on LN299 GBM cells it was 0.095 µM. For the same compound, the results for the Antiproliferative effect entry with parental GBM cells and with STAT3-KO GBM cells were “sensitive” and “resistant”, respectively. Besides, in the assay on MT330 glioma xenografts, the “Effect on orthotopic GBM tumor xenografts” value was “markedly reduced”. In the assay on MCF7 breast cancer cells, this compound came in with a Percent inhibition of 28.06%.
As to `N#Cc1cc(Cc2ccccc2)sc1NC(=O)c1cc2ccccc2o1` [Compound 5, N-(5-benzyl-3-cyanothiophen-2-yl)benzofuran-2-carboxamide], the “Inhibition of STAT3 phosphorylation” value on STAT3 is given as “potently block STAT3 phosphorylation at submicromolar levels”. For the same compound, the “Effect on STAT1 phosphorylation” value at STAT1 is recorded as “no effect”. For the same compound, the Percent inhibition in the assay with MCF7 breast cancer cells is 65.67%.
For `N#Cc1cc(Cc2ccccc2)sc1NC(=O)COc1cccc(C(F)(F)F)c1` [Compound 6, N-(5-benzyl-3-cyanothiophen-2-yl)-2-(3-(trifluoromethyl)phenoxy)acetamide], the Percent inhibition in the assay on MCF7 breast cancer cells worked out at 51.00%.
As to `CC(C)(Oc1ccccc1)C(=O)Nc1sc(Cc2ccccc2)cc1C#N` [Compound 7, N-(5-benzyl-3-cyanothiophen-2-yl)-2-methyl-2-phenoxypropanamide], at STAT3, the “Inhibition of STAT3 phosphorylation” value is recorded as “potently block STAT3 phosphorylation at submicromolar levels”. The “Effect on STAT1 phosphorylation” value on STAT1 is recorded as “no effect”. Further, the Percent inhibition in the assay on MCF7 breast cancer cells worked out at 23.33%.
